The source of these data is patent publication US4432987A, “Crystalline benzenesulfonate salts of sultamicillin” (priority 1982, dated 1984).

Where a name gives a salt, the structure may show the parent alone. Where only a bound is given, the exact number is not on record here.

Series [1] is described as follows: Storage of anhydrous salt under humidity / atmospheric moisture. Format: physicochemical. From the text:
When 4-chlorobenzenesulfonic acid is used in the above procedure the corresponding anhydrous 4-chlorobenzenesulfonic acid addition salt is obtained.

Series [2] is described as follows: Apparent solubility of sultamicillin salts in water and simulated gastric juice (without pepsin, pH 1.2), HPLC. Format: physicochemical. As to conditions: for Final pH, Simulated Gastric Juice: final pH of the solubility test in simulated gastric juice; for Final pH, Water: final pH of the solubility test in water; for Apparent Solubility, Simulated Gastric Juice: simulated gastric juice without pepsin, pH 1.2, 30 minutes agitation; for Apparent Solubility, Simulated Gastric Juice / Apparent Solubility, Water: 30 min; for Apparent Solubility, Water: 30 minutes vigorous agitation. As for the experimental part:
The solubility of the salts in water and simulated gastric juice without pepsin (pH 1.2) were compared. Equilibrium solubility was not determined since the compounds are not entirely stable in aqueous systems for the extended time required to reach equilibrium. Therefore, the apparent solubility was determined by vigorous agitation for 30 minutes with the solvent. The resulting mixture was then filtered and the amount of compound in solution determined by high pressure liquid chromatography (HPLC).
(§1) In the solubility and stability studies above samples of the materials were assayed by HPLC using a Chromegabond C-8* column (4.6 mm internal diameter×30 cm.). The mobile phase consisted of 30% by weight acetonitrile in pH 3 phosphate buffer (0.1 M). Flow rate, 1.6 ml/minute. Detection was by UV at 230 nm.

A short description of series [3]: Stability on storage at 50° C. for three weeks, retained potency (HPLC). Format: physicochemical. The conditions noted are these: 30240 min. On the procedure:
as §1

The nature of series [4]: Stability and solubility of sultamicillin forms. Format: physicochemical. The conditions noted are these: for stability (in words): solid state / handling.
Series [5] relates to Sarcina lutea (ATCCC 9341). As to conditions: no beta-lactamase; sulbactam up to 100 μg./ml.
In series [6] the test system is Pasteurella histolytica (59B010). As to conditions: beta-lactamase mediated resistance; high concentrations alone or combined.

For the compound `CC1(C)S[C@@H]2[C@H](NC(=O)[C@H](N)c3ccccc3)C(=O)N2[C@H]1C(=O)OCOC(=O)[C@@H]1N2C(=O)C[C@H]2S(=O)(=O)C1(C)C` [anhydrous salt, Anhydrous 1,1-Dioxopenicillanoyloxymethyl 6-[D-(2-amino-2-phenylacetamido)]penicillanate benzenesulfonate], the “water content of dihydrate formed upon storage” value in series [1] (50% relative humidity, 30 hours, by weight) is on record as 4.5%.
For the compound `CC1(C)S[C@@H]2[C@H](NC(=O)[C@H](N)c3ccccc3)C(=O)N2[C@H]1C(=O)OCOC(=O)[C@@H]1N2C(=O)C[C@H]2S(=O)(=O)C1(C)C` [4-Chlorobenzenesulfonate.2H2 O, 1,1-Dioxopenicillanoyloxymethyl 6-[D-(2-amino-2-phenylacetamido)]penicillanate 4-chlorobenzenesulfonate dihydrate], in series [2] (dihydrate), the “Final pH, Simulated Gastric Juice” value is on record as 1.1; the “Final pH, Water” value is 3.8; the “Apparent Solubility, Simulated Gastric Juice” value is 6300 µg/mL; the “Apparent Solubility, Water” value was 3300 µg/mL. In series [3] (listed as 4-chlorobenzenesulfonae.2H2 O, dihydrate), the “potency retained upon storage” value was 100%.
Regarding `CC1(C)S[C@@H]2[C@H](NC(=O)[C@H](N)c3ccccc3)C(=O)N2[C@H]1C(=O)OCOC(=O)[C@@H]1N2C(=O)C[C@H]2S(=O)(=O)C1(C)C` [Hydrochloride, 1,1-Dioxopenicillanoyloxymethyl 6-[D-(2-amino-2-phenylacetamido)]penicillanate hydrochloride], in series [2] (hydrochloride), the “Final pH, Simulated Gastric Juice” value is given as 1.12; the “Final pH, Water” value is given as 2.0; the “Apparent Solubility, Simulated Gastric Juice” value is > 79000 µg/mL; the “Apparent Solubility, Water” value is > 94000 µg/mL. The “potency retained upon storage” value in series [3] (listed as hydrochloride salt, hydrochloride) is given as 67%. The “solubility in water / aqueous systems (in words)” value in series [4] is “highly soluble in water”. The “stability in water (in words)” value in series [4] (aqueous) was “subject to hydrolytic decomposition”. For the same compound, in series [4] (hydrochloride), the “stability (in words)” value was “poor solid state stability”.
For `CC1(C)S[C@@H]2[C@H](NC(=O)[C@H](N)c3ccccc3)C(=O)N2[C@H]1C(=O)O` [ampicillin], the “susceptibility / synergy, Sarcina lutea” value in series [5] was “susceptible”. Besides, in series [6], the “susceptibility / synergy, Pasteurella histolytica” value is “insensitivity”.
On to `CC1(C)S[C@@H]2[C@H](NC(=O)[C@H](N)c3ccccc3)C(=O)N2[C@H]1C(=O)OCOC(=O)[C@@H]1N2C(=O)C[C@H]2S(=O)(=O)C1(C)C`, for which, in series [1] (48 hours), the “dihydrate formation upon exposure to atmospheric moisture” value is “forms a dihydrate”.
For `CC1(C)S[C@@H]2[C@H](NC(=O)[C@H](N)c3ccccc3)C(=O)N2[C@H]1C(=O)OCOC(=O)[C@@H]1N2C(=O)C[C@H]2S(=O)(=O)C1(C)C` [Benzenesulfonate.2H2 O, 1,1-Dioxopenicillanoyloxymethyl 6-[D-(2-amino-2-phenylacetamido)]penicillanate benzenesulfonate dihydrate], in series [2] (benzenesulfonate dihydrate), the “Final pH, Simulated Gastric Juice” value is given as 2.0; the Final pH, Water was 3.4; the “Apparent Solubility, Simulated Gastric Juice” value is 1800 µg/mL; the “Apparent Solubility, Water” value is 2150 µg/mL. For the same compound, the “potency retained upon storage” value in series [3] (benzenesulfonate dihydrate) came to 97%.
Regarding `CC1(C)[C@H](C(=O)O)N2C(=O)C[C@H]2S1(=O)=O` [sulbactam, penicillanic acid 1,1-dioxide], in series [5], the “susceptibility / synergy, Sarcina lutea” value is listed as “insensitive to sulbactam at concentrations as high as 100 μg./ml”. Also, in series [6], the “susceptibility / synergy, Pasteurella histolytica” value is “insensitivity”.
For `CC1(C)S[C@@H]2[C@H](NC(=O)[C@H](N)c3ccccc3)C(=O)N2[C@H]1C(=O)OCOC(=O)[C@@H]1N2C(=O)C[C@H]2S(=O)(=O)C1(C)C` [Sultamicillin free base, 1,1-dioxopenicillanoyloxymethyl 6-[D-(2-amino-2-phenylacetamido)]penicillanate], the “stability (in words)” value in series [4] was “poor handling characteristics and inadequate stability”.
